Results: patent US6864286B2, “Inhibitors of the EGF-receptor tyrosine kinase and methods for their use” (Parker Hughes Institute, priority 1998, dated 2005)

Columns and labels:
EGFR tyrosine kinase = molecular target: T1, EGFR tyrosine kinase (Homo sapiens, UniProt P00533); experiment: Cell-free EGFR immune complex kinase assay; type: biochemical; conditions: EGFR immunoprecipitated from MDA-MB-231 lysates, 1 hour incubation, read-out: EGFR Inhibition IC50
T1 construct: anti-EGFR immunoprecipitates from lysates of MDA-MB-231 human breast cancer cells; endogenous in cells; host or cells: MDA-MB-231 (ATCC HTB-26)
T1 sequence (P00533 25-1210): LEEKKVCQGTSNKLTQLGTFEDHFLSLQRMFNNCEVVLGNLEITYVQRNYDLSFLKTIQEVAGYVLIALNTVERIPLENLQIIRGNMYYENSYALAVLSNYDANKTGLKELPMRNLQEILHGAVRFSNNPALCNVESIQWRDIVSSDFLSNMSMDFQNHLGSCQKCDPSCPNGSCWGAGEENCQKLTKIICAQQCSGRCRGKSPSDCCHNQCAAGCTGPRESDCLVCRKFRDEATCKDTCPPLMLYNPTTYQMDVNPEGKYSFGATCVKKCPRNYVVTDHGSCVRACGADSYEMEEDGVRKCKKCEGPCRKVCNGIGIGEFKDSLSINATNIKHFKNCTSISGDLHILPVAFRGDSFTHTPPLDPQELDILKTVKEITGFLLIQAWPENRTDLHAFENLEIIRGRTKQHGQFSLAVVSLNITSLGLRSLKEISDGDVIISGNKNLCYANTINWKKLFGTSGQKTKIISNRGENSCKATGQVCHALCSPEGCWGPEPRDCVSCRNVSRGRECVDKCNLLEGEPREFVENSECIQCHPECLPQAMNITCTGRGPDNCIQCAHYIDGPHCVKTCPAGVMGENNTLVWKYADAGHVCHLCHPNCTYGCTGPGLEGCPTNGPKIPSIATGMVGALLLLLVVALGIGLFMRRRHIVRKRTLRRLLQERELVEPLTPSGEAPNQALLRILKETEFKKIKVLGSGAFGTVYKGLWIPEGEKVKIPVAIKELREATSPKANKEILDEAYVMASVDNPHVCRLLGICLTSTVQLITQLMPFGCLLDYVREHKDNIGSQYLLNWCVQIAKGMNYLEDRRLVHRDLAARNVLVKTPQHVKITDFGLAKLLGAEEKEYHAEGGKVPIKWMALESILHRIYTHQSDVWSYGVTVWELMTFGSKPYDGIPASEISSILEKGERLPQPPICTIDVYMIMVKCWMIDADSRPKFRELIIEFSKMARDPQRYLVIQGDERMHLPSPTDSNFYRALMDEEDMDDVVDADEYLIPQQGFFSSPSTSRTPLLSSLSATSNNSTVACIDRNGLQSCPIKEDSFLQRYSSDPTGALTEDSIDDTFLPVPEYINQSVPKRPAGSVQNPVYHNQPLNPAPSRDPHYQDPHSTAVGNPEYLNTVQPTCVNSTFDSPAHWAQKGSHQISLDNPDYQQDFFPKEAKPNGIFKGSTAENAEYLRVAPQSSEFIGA
Experimental: For EGFR immune complex kinase assays, 24-hours after treatment with leflunomide analogs, MDA-MB-231 breast cancer cells were stimulated with 20 ng/mL EGF for 5 minutes, lysed in 1% Nonidet-P-40 buffer, and cell lysates were immunoprecipitated with an anti-EGFR antibody reactive with the sequence Ala^351-Asp^364 of the human EGFR (Upstate Biotechnology Inc. [UBI] Catalog # 05-104) (Uckun, F. M., et al. Clin. Can. Res. 1998, 4, 901). EGFR immune complexes were examined for tyrosine phosphorylation by Western blot analysis, as described by Uckun, F. M., et al. Clin. Can. Res. 1998, 4, 901. All anti-phosphotyrosine Western blots were subjected to densitometric scanning using the automated AMBIS system (Automated Microbiology System, Inc., San Diego, Calif.) and for each time point a % inhibition value was determined by comparing the density ratios of the tyrosine phosphorylated EGFR protein bands to those of the baseline sample and using the formula: % Inhibition=100−100×[Density of tyrosine phosphorylated EGFR band]test sample/[Density of tyrosine phosphorylated EGFR band]baseline control sample. The IC50 values were determined using an Inplot program (Graphpad Software, Inc., San Diego, Calif.).
In other experiments, MDA-MB-231 cells were stimulated with 10 ng/ml EGF prior to immunoprecipitation of the EGFR. EGFR immune complexes were incubated for 1 hour at room temperature with various LFM analogs and tyrosine kinase assays were performed in the presence of [γ-^32P]-ATP, as previously described (Uckun, F. M., et al. Clin. Can. Res. 1998, 4, 901; Narla, R. K., et al. Clin. Can. Res 1998, 1405; Uckun, F. M., et al. Science 1996, 22, 1096; Uckun, F. M., et al. Science 1995, 267, 886). The kinase assay gels were analyzed both by autoradiography and using the BioRad Storage Phosphor Imager System (BioRad, Hercules, Calif.) for quantitative scanning.

MDA-MB-231 cells [1] = experiment: MTT cytotoxicity assay, MDA-MB-231; type: cell-based; conditions: Homo sapiens, 36 hours, read-out: Cancer Cell Cytotoxicity IC50 MDA-MB-231
Experimental: (§1) In order to determine the cytotoxic activity of LFM and its analogs against breast cancer cells, cells in alpha-MEM supplemented with 10% (v/v) fetal calf serum were treated with various concentrations of the compounds for 24 hours at 37° C., washed twice in alpha-MEM, and then used in either MTT assays or in vitro invasion assays, as described hereinafter.
(§2) The cytotoxicity of various compounds against human breast cancer cell lines was analyzed using the MTT (3-[4,5-dimethylthiazol-2-yl]-2,5-diphenyl tetrazolium bromide) assay (Boehringer Mannheim Corp., Indianapolis, Ind.). Uckun F. M., et al. Clin. Cancer Res. 1998, 4, 901-912. Exponentially growing breast cancer cells were seeded into a 96-well plate at a density of 2.5×10^4 cells/well and incubated for 36 hours at 37° C. prior to drug exposure. On the day of treatment, culture medium was carefully aspirated from the wells and replaced with fresh medium containing the LFM analogs at concentrations ranging from 2 to 250 μM. Triplicate wells were used for each treatment. The cells were incubated with the various compounds for 36 hours at 37° C. in a humidified 5% CO2 atmosphere. To each well, 10 μl of MTT (0.5 mg/ml final concentration) was added and the plates were incubated at 37° C. for 4 hours to allow MTT to form formazan crystals by reacting with metabolically active cells. The formazan crystals were solubilized overnight at 37° C. in a solution containing 10% SDS in 0.01 M HCl. The absorbence of each well was measured in a microplate reader (Labsystems) at 540 nm and a reference wavelength of 690 nm.
(§3) To translate the absorbance A540 values into the number of live cells in each well, the A540 values were compared to those on standard A540-versus-cell number curves generated for each cell line. The percent survival was calculated using the formula: % survival=Live cell number[test]/Live cell number [control]×100. The IC50 values were calculated by non-linear regression analysis using an Graphpad Prism software version 2.0 (Graphpad Software, Inc., San Diego, Calif.).

MDA-MB-361 cells = experiment: MTT cytotoxicity assay, MDA-MB-361; type: cell-based; conditions: Homo sapiens, 36 hours, read-out: Cancer Cell Cytotoxicity IC50 MDA-MB-361
Experimental: as §1, §2, §3

MDA-MB-231 cells [2] = experiment: Confocal laser scanning microscopy of treated cells; type: cell-based, human; conditions: MDA-MB-231, 100 μM, 24 hours, α-tubulin / TOTO-3 staining
Experimental: Immunofluorescence was used to examine the morphologic features of breast cancer cells treated with LFM and its analogs. Before the experiment, cells were trypsinized from rapidly growing tissue culture flasks and seeded onto sterile 22 mm^2 coverslips in 6-well culture plates. Cells on coverslips were returned to the incubator for 24 hours prior to treatment. The following day, drugs were added from a stock solution made in DMSO to a final concentration of 100 μM. Final DMSO concentration was 0.1% in both test samples and controls. Cells were returned to a 37° C. incubator for 24 hours before further processing.
At 24 hours, coverslips were fixed in −20° C. methanol for 15 minutes followed by a 15 minute incubation in phosphate buffered saline +0.1% Triton X-100(PBS-Tx). Coverslips were next incubated with a monoclonal antibody against α-tubulin (Sigma Chemical Co, St. Louis, Mo.) at a dilution of 1:1000 for 40 minutes in a humidified chamber at 37° C. Coverslips were washed for 15 minutes in PBS-Tx followed by a 40 min incubation with a goat anti-mouse IgG antibody conjugated to FITC (Amersham Corp., Arlington Heights, Ill.). The coverslips were again rinsed in PBS-Tx and incubated with 5 μM TOTO-3 (Molecular Probes, Eugene Oreg.) for 20 minutes to label the nuclear DNA. […]

| IC50 (EGFR tyrosine kinase) [µM] | Structure (SMILES) | IC50 (MDA-MB-231 cells [1]) [µM] | IC50 (MDA-MB-361 cells) [µM] | morphology and microtubular organization of treated cells (MDA-MB-231 cells [2]) |
| --- | --- | --- | --- | --- |
| > 100 | CC(O)=C(C#N)C(=O)Nc1ccc(Br)cc1 [LFM-A1, α-Cyano-β-hydroxy-β-methyl-N-(4-bromophenyl)propenamide] | > 300 | > 300 | – |
| > 100 | CC(O)=C(C#N)C(=O)Nc1cccc(F)c1 [LFM-A11, α-Cyano-β-hydroxy-β-methyl-N-(3-fluorophenyl)propenamide] | > 300 | > 300 | – |
| > 100 | CC(O)=C(C#N)C(=O)Nc1ccc(Cl)cc1 [LFM-A2, α-Cyano-β-hydroxy-β-methyl-N-(4-chlorophenyl)propenamide] | > 300 | > 300 | – |
| > 100 | CC(O)=C(C#N)C(=O)Nc1ccc(F)cc1 [LFM-A3, α-Cyano-β-hydroxy-β-methyl-N-(4-fluorophenyl)propenamide] | > 300 | > 300 | did not affect the morphology or microtubular organization |
| > 100 | CC(O)=C(C#N)C(=O)Nc1cccc(Br)c1 [LFM-A9, α-Cyano-β-hydroxy-β-methyl-N-(3-bromophenyl)propenamide] | > 300 | > 300 | – |
| > 100 | CC(O)=C(C#N)C(=O)Nc1cccc(Cl)c1 [LFM-A10, α-Cyano-β-hydroxy-β-methyl-N-(3-chlorophenyl)propenamide] | > 300 | > 300 | – |
| > 100 | CC(O)=C(C#N)C(=O)Nc1cccc(C(F)(F)F)c1 [LFM-A8, α-Cyano-β-hydroxy-β-methyl-N-[3-(trifluoromethyl)phenyl]-propenamide] | > 300 | > 300 | – |
| 74.5 | CC(O)=C(C#N)C(=O)Nc1ccccc1F [LFM-A7, α-Cyano-β-hydroxy-β-methyl-N-(2-fluorophenyl)propenamide] | > 300 | > 300 | – |
| > 100 | CC(O)=C(C#N)C(=O)Nc1ccccc1Br [LFM-A5, α-Cyano-β-hydroxy-β-methyl-N-(2-bromophenyl)propenamide] | > 300 | > 300 | – |
| > 100 | CC(O)=C(C#N)C(=O)Nc1ccccc1 [LFM-A14, α-Cyano-β-hydroxy-β-methyl-N-(phenyl)propenamide] | > 300 | > 300 | – |
| > 100 | CC(O)=C(C#N)C(=O)Nc1ccccc1C(F)(F)F [LFM-A4, α-Cyano-β-hydroxy-β-methyl-N-[2-(trifluoromethyl)phenyl]-propenamide] | > 300 | > 300 | – |
| > 100 | CC(O)=C(C#N)C(=O)Nc1ccccc1Cl [LFM-A6, α-Cyano-β-hydroxy-β-methyl-N-(2-chlorophenyl)propenamide] | > 300 | > 300 | – |

| Structure (SMILES) | IC50 (EGFR tyrosine kinase) [µM] | IC50 (MDA-MB-231 cells [1]) [µM] | IC50 (MDA-MB-361 cells) [µM] | morphology and microtubular organization of treated cells (MDA-MB-231 cells [2]) |
| --- | --- | --- | --- | --- |
| CC(O)=C(C#N)C(=O)Nc1cc(Br)ccc1Br [LFM-A13, α-Cyano-β-hydroxy-β-methyl-N-(2,5-dibromophenyl)propenamide] | > 100 | > 300 | > 300 | – |
